Source: publication PMC6630443 (Viruses, 2019)

Tested on: persistent USUV
Assay type: cell-based, Usutu virus

Row | Structure (SMILES) | USUV infectivity in supernatant after drug removal | Viral RNA levels in cellular supernatant by day 10
1 | NC(=O)c1nc(F)cnc1O [Favipiravir, 6-fluoro-3-hydroxy-2-pyrazinecarboxamide] | re-emerged | barely detectable
2 | NC(=O)c1ncn([C@@H]2O[C@H](CO)[C@@H](O)[C@H]2O)n1 [Ribavirin, 1-(β-D-Ribofuranosyl)-1H-1,2,4-triazole-3-carboxamide] | re-emerged | barely detectable
